From PMC10355191 (Chemical research in toxicology, 2023)

Biological target: α2A-adrenergic receptor (Homo sapiens, UniProt P08913)
Sequence (P08913 whole entry): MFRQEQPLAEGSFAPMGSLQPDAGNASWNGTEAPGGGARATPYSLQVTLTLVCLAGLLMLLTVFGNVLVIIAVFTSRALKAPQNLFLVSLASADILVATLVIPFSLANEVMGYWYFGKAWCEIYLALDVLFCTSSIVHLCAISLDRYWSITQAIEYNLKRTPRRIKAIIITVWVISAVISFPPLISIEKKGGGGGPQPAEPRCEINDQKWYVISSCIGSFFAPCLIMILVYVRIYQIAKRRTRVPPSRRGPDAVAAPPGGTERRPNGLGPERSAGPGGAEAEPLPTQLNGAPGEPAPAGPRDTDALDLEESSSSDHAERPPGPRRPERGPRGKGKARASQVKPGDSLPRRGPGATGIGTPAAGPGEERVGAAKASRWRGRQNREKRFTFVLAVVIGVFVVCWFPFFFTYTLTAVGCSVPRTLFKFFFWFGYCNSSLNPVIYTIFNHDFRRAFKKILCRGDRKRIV

With `N=C(N)N/N=C/c1c(Cl)cccc1Cl` [E-GA, trans-guanabenz] the “% inhibition at 1 μM” value was 50.
